From US20170015654A1, “PYRIDAZINE COMPOUND” (TAKEDA PHARMACEUTICAL COMPANY LIMITED, priority 2014, published 2017)

The compounds below were run on human large intestine cancer cell line HCT116 (assay: Antitumor effect on human large intestine cancer cell line HCT116 cancer-bearing mice). Conditions: 10 mg/kg, 2 doses per day, orally for 14 days; HCT116 cancer-bearing BALB/c nude mice; tumor growth vs control group.
Type: in vivo, mouse
Protocol: The compound of the present invention was evaluated for its antitumor effect on human large intestine cancer cell line HCT116 cancer-bearing mice by the following method.
The human large intestine cancer cell line HCT116 (purchased from ATCC (American Type Culture Collection)) was transplanted to each 6-week-old BALB/c female nude mouse (BALB/cA Jcl nu/nu: CLEA Japan Inc.) by the subcutaneous injection of 1.0×10^6 cells. After the transplantation, successfully engrafted tumor was observed, and the tumor size was measured 10 to 14 days after the transplantation. The tumor volume was calculated according to the following expression:
Tumor volume=Major axis×Minor axis×Minor axis×(½)
Individuals in which the volume of the engrafted tumor reached approximately 150 mm^3 were selected and used in the experiment as groups each involving 5 to 8 individuals. Each test compound was suspended in a 0.5% methylcellulose solution and orally administered to each individual for 14 days using the dose and the number of doses shown in the table below. Finally, in order to measure drug effects, the tumor volume was calculated from the tumor sizes at the day before the start of the administration and at the final day of the administration, and tumor growth in the test compound administration group compared with a control administration group given only a 0.5% methylcellulose solution was calculated as T/C according to the following expression:
T/C (%)=(Tumor volume after the completion of the administration of the test compound administration group−Tumor volume at the day before the start of the administration of the test compound administration group)/(Tumor volume after the completion of the administration of the control administration group−Tumor volume at the day before the start of the administration of the control administration group)×100

Row | Structure (SMILES) | T/C (%)
1 | N#CC1(c2ccc(S(F)(F)(F)(F)F)cc2)CCN(c2ccc(-c3nnc(CO)o3)nn2)CC1 [Example 58, 1-(6-(5-(Hydroxymethyl)-1,3,4-oxadiazol-2-yl)pyridazin-3-yl)-4-(4-(pentafluorosulfanyl)phenyl)piperidine-4-carbonitrile] | 86.2
2 | OCc1nnc(-c2ccc(N3CCC(c4ccc(C(F)(F)F)cc4)(C(F)(F)F)CC3)nn2)o1 [Example 84, (5-(6-(4-(Trifluoromethyl)-4-(4-(trifluoromethyl)phenyl)piperidin-1-yl)pyridazin-3-yl)-1,3,4-oxadiazol-2-yl)methanol] | 58.4
3 | COC1(c2ccc(S(F)(F)(F)(F)F)cc2)CCN(c2ccc(-c3nnc(CO)o3)nn2)CC1 [Example 93, (5-(6-(4-Methoxy-4-(4-(pentafluorosulfanyl)phenyl)piperidin-1-yl)pyridazin-3-yl)-1,3,4-oxadiazol-2-yl)methanol] | 58.1
4 | COC1(c2ccc(S(F)(F)(F)(F)F)cc2)CCN(c2ccc(-c3nc(CO)ns3)nn2)CC1 [Example 110, (5-(6-(4-Methoxy-4-(4-(pentafluorosulfanyl)phenyl)piperidin-1-yl)pyridazin-3-yl)-1,2,4-thiadiazol-3-yl)methanol] | 64.8
5 | OCc1nsc(-c2ccc(N3CCC(c4ccc(C(F)(F)F)cc4)(C(F)(F)F)CC3)nn2)n1 [Example 112, (5-(6-(4-(Trifluoromethyl)-4-(4-(trifluoromethyl)phenyl)piperidin-1-yl)pyridazin-3-yl)-1,2,4-thiadiazol-3-yl)methanol] | 53.7
6 | OCc1nnc(-c2ccc(N3CCC(c4ccc(C(F)(F)F)cc4)(C(F)(F)F)CC3)nn2)s1 [Example 113, (5-(6-(4-(Trifluoromethyl)-4-(4-(trifluoromethyl)phenyl)piperidin-1-yl)pyridazin-3-yl)-1,3,4-thiadiazol-2-yl)methanol] | 67.8
